In the assay the test system is test plant species. Put plainly: Post-emergent herbicidal activity test (greenhouse, foliar spray, visual growth reduction). The format is in vivo. The following applies: post-emergence, 336 h, 140 g ai/ha, 14 days after application. The method, boiled down: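 Greenhouse plants at first–second true leaf stage sprayed overhead at 187 L/ha with compound in acetone/water/isopropanol/DMSO/crop oil/X-77 carrier; controls received solvent blank. Injury rated visually after 14 d on a 0–100% scale versus untreated and control plants, converted to growth reduction.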

The mark [1] stands for this setting: ALOMY: blackgrass (Alopecurus myosuroides), read-out: Visual Growth Reduction (%) 14 Days After Application, ALOMY.
The mark [2] stands for this setting: AMARE: redroot pigweed (Amaranthus retroflexus), read-out: Visual Growth Reduction (%) 14 Days After Application, AMARE.
[3] abbreviates: AVEFA: wild oat (Avena fatua), read-out: Visual Growth Reduction (%) 14 Days After Application, AVEFA.
Setting [4] is: CHEAL: lambsquarters (Chenopodium album), read-out: Visual Growth Reduction (%) 14 Days After Application, CHEAL.
Setting [5] is: CIRAR: canada thistle (Cirsium arvense), read-out: Visual Growth Reduction (%) 14 Days After Application, CIRAR.
Where [6] appears, read: CYPES: yellow nutsedge (Cyperus esculentus), read-out: Visual Growth Reduction (%) 14 Days After Application, CYPES.
Where [7] appears, read: DIGSA: crabgrass (Digitaria sanguinalis), read-out: Visual Growth Reduction (%) 14 Days After Application, DIGSA.
The mark [8] stands for this setting: ECHCG: barnyardgrass (Echinochloa crus-galli), read-out: Visual Growth Reduction (%) 14 Days After Application, ECHCG.
[9] abbreviates: IPOHE: ivy-leaf morning glory (Ipomoea hederacea), read-out: Visual Growth Reduction (%) 14 Days After Application, IPOHE.
Setting [10] is: KCHSC: kochia (Bassia scoparia), read-out: Visual Growth Reduction (%) 14 Days After Application, KCHSC.
[11] abbreviates: ORYSA: rice (Oryza sativa), read-out: Visual Growth Reduction (%) 14 Days After Application, ORYSA.
The mark [12] stands for this setting: SETFA: giant foxtail (Setaria faberi), read-out: Visual Growth Reduction (%) 14 Days After Application, SETFA.
Setting [13] is: SORVU: grain sorghum (Sorghum vulgare), read-out: Visual Growth Reduction (%) 14 Days After Application, SORVU.
Setting [14] is: STEME: common chickweed (Stellaria media), read-out: Visual Growth Reduction (%) 14 Days After Application, STEME.
[15] abbreviates: TRZAS: wheat, spring (Triticum aestivum), read-out: Visual Growth Reduction (%) 14 Days After Application, TRZAS.

Read-outs that look alike come from different tables or passages of the source.

As for `O=C(O)c1nc(-c2ncc(C(F)(F)F)cc2Cl)ccc1Cl` [F164, 3′,5-Dichloro-5′-(trifluoromethyl)-[2,2′-bipyridine]-6-carboxylic acid], the pest or weed control at 140 g/ha is, setting by setting: under setting [1], 60 to 74%; under setting [2], 95 to 100%; under setting [3], 60 to 74%; under setting [4], 95 to 100%; under setting [5], 85 to 94%; under setting [6], 0 to 29%. Also, the pest or weed control at 140 g/ha runs as follows: under setting [7], 95 to 100%; under setting [8], 85 to 94%; under setting [9], 95 to 100%; under setting [10], 95 to 100%; under setting [11], 60 to 74%; under setting [12], 95 to 100%. The pest or weed control at 140 g/ha under setting [13] was in the range of 85 to 94%, the pest or weed control at 140 g/ha under setting [14] lay within 30 to 44% and the pest or weed control at 140 g/ha under setting [15] was 85 to 94%.

Turning to `COC(=O)c1nc(-c2ccc(OC(F)F)cc2)c(F)cc1Cl` [F165, Methyl 3-chloro-6-(4-(difluoromethoxy)phenyl)-5-fluoropicolinate], the pest or weed control at 140 g/ha under setting [1] lay in the range of 0 to 29%; the pest or weed control at 140 g/ha under setting [2] lay in the range of 85 to 94%; the pest or weed control at 140 g/ha under setting [3] lay within 0 to 29%; the pest or weed control at 140 g/ha under setting [4] lay within 45 to 59%; the pest or weed control at 140 g/ha under setting [5] was 60 to 74%; the pest or weed control at 140 g/ha under setting [6] fell in the range of 0 to 29%. Further, the pest or weed control at 140 g/ha lay in the range of 75 to 84% under setting [7]; 60 to 74% under setting [8]; 75 to 84% under setting [9]; 30 to 44% under setting [10]; 0 to 29% under setting [11]; 75 to 84% under setting [12]. Moreover, the pest or weed control at 140 g/ha under setting [13] fell in the range of 85 to 94%, the pest or weed control at 140 g/ha under setting [14] was 0 to 29% and the pest or weed control at 140 g/ha under setting [15] lay within 0 to 29%.

As for `COC(=O)c1nc(-c2ccc(C(F)(F)F)cc2OC)c(F)cc1Cl` [F166, Methyl 3-chloro-5-fluoro-6-(2-methoxy-4-(trifluoromethyl)phenyl)picolinate], the pest or weed control at 140 g/ha was 0 to 29% under setting [1]; 95 to 100% under setting [2]; 75 to 84% under setting [3]; 85 to 94% under setting [4]; 85 to 94% under setting [5]; 0 to 29% under setting [6]. Also, the pest or weed control at 140 g/ha runs as follows: under setting [7], 75 to 84%; under setting [8], 95 to 100%; under setting [9], 95 to 100%; under setting [10], 95 to 100%; under setting [11], 0 to 29%; under setting [12], 85 to 94%. Besides, the pest or weed control at 140 g/ha fell in the range of 85 to 94% under setting [13], 30 to 44% under setting [14] and 75 to 84% under setting [15].

As to `COC(=O)c1nc(-c2ccc(C(F)(F)F)nc2F)ccc1Cl` [F167, Methyl 5-chloro-2′-fluoro-6′-(trifluoromethyl)-[2,3′-bipyridine]-6-carboxylate], the pest or weed control at 140 g/ha reads like this: under setting [1], 0 to 29%; under setting [2], 60 to 74%; under setting [3], 0 to 29%; under setting [4], 75 to 84%; under setting [5], 0 to 29%; under setting [6], 0 to 29%. Also, the pest or weed control at 140 g/ha fell in the range of 0 to 29% under setting [8]; 60 to 74% under setting [9]; 30 to 44% under setting [10]; 0 to 29% under setting [11]; 60 to 74% under setting [12]; 75 to 84% under setting [13]. Also, the pest or weed control at 140 g/ha is 0 to 29% under setting [14] and 0 to 29% under setting [15].

As to `COC(=O)c1nc(-c2ccc(C#N)cc2)c(F)cc1Cl` [F168, Methyl 3-chloro-6-(4-cyanophenyl)-5-fluoropicolinate], the pest or weed control at 140 g/ha runs as follows: under setting [1], 0 to 29%; under setting [2], 30 to 44%; under setting [3], 0 to 29%; under setting [4], 45 to 59%; under setting [5], 0 to 29%; under setting [6], 0 to 29%. The pest or weed control at 140 g/ha is, setting by setting: under setting [7], 60 to 74%; under setting [8], 30 to 44%; under setting [9], 60 to 74%; under setting [10], 0 to 29%; under setting [11], 0 to 29%; under setting [12], 30 to 44%. Also, the pest or weed control at 140 g/ha under setting [13] was in the range of 30 to 44%, the pest or weed control at 140 g/ha under setting [14] fell in the range of 0 to 29% and the pest or weed control at 140 g/ha under setting [15] is 0 to 29%.

On to `COC(=O)c1nc(-c2ccc(S(C)(=O)=O)cc2)c(F)cc1Cl` [F169, Methyl 3-chloro-5-fluoro-6-(4-(methylsulfonyl)phenyl)picolinate], for which the pest or weed control at 140 g/ha reads like this: under setting [1], 0 to 29%; under setting [2], 30 to 44%; under setting [3], 0 to 29%; under setting [4], 30 to 44%; under setting [5], 0 to 29%; under setting [6], 0 to 29%. Besides, the pest or weed control at 140 g/ha under setting [7] is 30 to 44%; the pest or weed control at 140 g/ha under setting [8] lay within 45 to 59%; the pest or weed control at 140 g/ha under setting [9] lay in the range of 60 to 74%; the pest or weed control at 140 g/ha under setting [10] lay in the range of 30 to 44%; the pest or weed control at 140 g/ha under setting [11] is 0 to 29%; the pest or weed control at 140 g/ha under setting [12] was 60 to 74%. Further, the pest or weed control at 140 g/ha is, setting by setting: under setting [13], 60 to 74%; under setting [14], 0 to 29%; under setting [15], 0 to 29%.

For the compound `COC(=O)c1nc(-c2ccc(C(F)(F)F)cc2C)c(F)cc1Cl` [F170, Methyl 3-chloro-5-fluoro-6-(2-methyl-4-(trifluoromethyl)phenyl)picolinate], the pest or weed control at 140 g/ha runs as follows: under setting [1], 45 to 59%; under setting [2], 95 to 100%; under setting [3], 30 to 44%; under setting [4], 95 to 100%; under setting [5], 85 to 94%; under setting [6], 60 to 74%. Also, the pest or weed control at 140 g/ha is, setting by setting: under setting [7], 85 to 94%; under setting [8], 60 to 74%; under setting [9], 95 to 100%; under setting [10], 60 to 74%; under setting [11], 0 to 29%; under setting [12], 85 to 94%. Further, the pest or weed control at 140 g/ha runs as follows: under setting [13], 85 to 94%; under setting [14], 0 to 29%; under setting [15], 60 to 74%.

Turning to `CCN(CC)c1c(Cl)ccc(-c2ccc(Cl)c(C(=O)OC)n2)c1F` [F171], the pest or weed control at 140 g/ha is, setting by setting: under setting [1], 0 to 29%; under setting [2], 0 to 29%; under setting [3], 0 to 29%; under setting [4], 60 to 74%; under setting [5], 0 to 29%; under setting [6], 0 to 29%. The pest or weed control at 140 g/ha lay in the range of 0 to 29% under setting [7]; 0 to 29% under setting [8]; 0 to 29% under setting [9]; 30 to 44% under setting [10]; 0 to 29% under setting [11]; 0 to 29% under setting [12]. Besides, the pest or weed control at 140 g/ha reads like this: under setting [13], 0 to 29%; under setting [14], 0 to 29%; under setting [15], 0 to 29%.

For the compound `COC(=O)c1nc(-c2cc3c(cc2F)OC(F)(F)O3)ccc1Cl` [F172, Methyl 3-chloro-6-(2,2,6-trifluorobenzo[d] [1,3]dioxol-5-yl)picolinate], the pest or weed control at 140 g/ha lay in the range of 30 to 44% under setting [1]; 95 to 100% under setting [2]; 30 to 44% under setting [3]; 85 to 94% under setting [4]; 60 to 74% under setting [5]; 75 to 84% under setting [6]. The pest or weed control at 140 g/ha under setting [7] lay in the range of 85 to 94%; the pest or weed control at 140 g/ha under setting [8] lay in the range of 75 to 84%; the pest or weed control at 140 g/ha under setting [9] lay within 95 to 100%; the pest or weed control at 140 g/ha under setting [10] lay in the range of 30 to 44%; the pest or weed control at 140 g/ha under setting [11] is 0 to 29%; the pest or weed control at 140 g/ha under setting [12] fell in the range of 45 to 59%. Further, the pest or weed control at 140 g/ha under setting [13] lay within 95 to 100%, the pest or weed control at 140 g/ha under setting [14] lay in the range of 0 to 29% and the pest or weed control at 140 g/ha under setting [15] was in the range of 45 to 59%.

(Values after patent publication US20230017045A1, “PYRIDINE AND PYRIMIDINE CARBOXYLATE HERBICIDES AND METHODS OF USE THEREOF” (Dow AgroSciences LLC, priority 2017, published 2023).)
